# Data: ChEMBL document CHEMBL5625208, “Tumor selective self-assembled nanomicelles of carbohydrate-epothilone B conjugate for targeted chemotherapy” (Eur J Med Chem, 2023)
# Active and inactive are the calls of the source. The rule behind the calls is not given here.
# Columns and labels:
# [1] = Toxicity in mouse xenografted with human MCF7 cells assessed as reduction in body weight at 3 mg/kg, ip administered every 3 days for 3 times and measured after 14 days; format: organism-based; settings: in vivo, 336 h, time 14 day
# [2] = system: MCF7; assay: Antitumor activity against human MCF7 cells xenografted in mouse assessed as reduction in PCNA positive cells at 1.5 to 3 mg/kg, ip administered every 3 days for 3 times measured after 14 days by H and E staining based assay; format: functional, organism-based; settings: dose 1.5-3 mg/kg, time 14.0 day
# [3] = system: MCF7; assay: Antitumor activity against human MCF7 cells xenografted in mouse assessed as appearance of small cavities in tumor cells at 1.5 to 3 mg/kg, ip administered every 3 days for 3 times measured after 14 days by H and E staining based assay; format: functional, organism-based; settings: dose 1.5-3 mg/kg, time 14.0 day
# [4] = Toxicity in mouse xenografted with human MCF7 cells assessed as animal death at 3 mg/kg, ip administered every 3 days for 3 times and measured on day 8; format: organism-based; settings: in vivo, 192 h, time 8 day
# [5] = system: MCF7; assay: Antiproliferative activity against human MCF7 cells assessed as reduction in cell viability at 1 to 1000 nM preincubated for with NEM for 1 hr followed by compound addition and measured after 72 hrs by MTT assay; format: functional, cell-based; settings: dose 1-1000 nM
# [6] = system: MCF7; assay: Antitumor activity against human MCF7 cells xenografted in mouse assessed as appearance of intracellular space dilatation in tumor cells at 1.5 to 3 mg/kg, ip administered every 3 days for 3 times measured after 14 days by H and E staining based assay; format: functional, organism-based; settings: dose 1.5-3 mg/kg, time 14.0 day
# [7] = Prodrug release in DTT at pH 7.4 assessed as Epothilone B release after 12 hrs by HPLC analysis; format: ADME; settings: pH 7.4, 12 h
# [8] = Prodrug release in DTT at pH 7.4 after 12 hrs by HPLC analysis; format: ADME; settings: pH 7.4, 12 h
# [9] = system: HepG2; assay: Antiproliferative activity against human HepG2 cells assessed as reduction in cell viability after 72 hrs by MTT assay; format: functional, cell-based
# [10] = system: MCF7; assay: Antiproliferative activity against human MCF7 cells assessed as reduction in cell viability after 72 hrs by MTT assay; format: functional, cell-based
# [11] = system: NCI-H460; assay: Antiproliferative activity against human NCI-H460 cells assessed as reduction in cell viability after 72 hrs by MTT assay; format: functional, cell-based
# [12] = system: NCI-460/Taxol; assay: Antiproliferative activity against human NCI-460/taxol cells assessed as reduction in cell viability after 72 hrs by MTT assay; format: functional, cell-based
# [13] = system: MCF7; assay: Antitumor activity against human MCF7 cells xenografted in mouse assessed as reduction in tumor growth at 3.2 to 6.4 mg/kg, ip administered every 3 days for 3 times and measured after 14 days; format: functional, organism-based; settings: dose 3.2-6.4 mg/kg, time 14.0 day
# [14] = Toxicity in mouse xenografted with human MCF7 cells assessed as spleen damage at 3.2 mg/kg, ip administered every 3 days for 3 times and measured after 14 days; format: organism-based; settings: in vivo, 336 h, time 14 day
# [15] = system: MCF7; assay: Antiproliferative activity against human MCF7 cells assessed as reduction in cell viability preincubated for with NEM for 1 hr followed by compound addition by xCELLigence real time analysis; format: functional, cell-based
# [16] = Toxicity in mouse xenografted with human MCF7 cells assessed as kidney damage at 3.2 mg/kg, ip administered every 3 days for 3 times and measured after 14 days; format: organism-based; settings: in vivo, 336 h, time 14 day
# [17] = system: MCF7; assay: Antitumor activity against human MCF7 cells xenografted in mouse assessed as appearance of intracellular space dilatation in tumor cells at 3.2 to 6.4 mg/kg, ip administered every 3 days for 3 times measured after 14 days by H and E staining based assay; format: functional, organism-based; settings: dose 3.2-6.4 mg/kg, time 14.0 day
# [18] = Prodrug release in PBS at pH 7.4 assessed as Epothilone B release in presence of different concentrations of DTT by HPLC analysis; format: ADME; settings: buffer
# [19] = system: MCF7; assay: Antiproliferative activity against human MCF7 cells assessed as reduction in cell viability at 1 to 1000 nM preincubated for with rhamnose for 1 hr followed by compound addition and measured after 72 hrs by MTT assay; format: functional, cell-based; settings: dose 1-1000 nM
# [20] = system: MCF7; assay: Antitumor activity against human MCF7 cells xenografted in mouse assessed as reduction in tumor weight at 3.2 to 6.4 mg/kg, ip administered every 3 days for 3 times and measured after 14 days; format: functional, organism-based; settings: dose 3.2-6.4 mg/kg, time 14.0 day
# [21] = system: L02; assay: Cytotoxicity against human HL7702 cells incubated for 72 hrs by MTT assay; format: toxicity, cell-based; settings: l02, 72 h
# [22] = Toxicity in mouse xenografted with human MCF7 cells assessed as change in body weight at 3.2 mg/kg, ip administered every 3 days for 3 times and measured after 14 days; format: organism-based; settings: in vivo, 336 h, time 14 day
# [23] = Toxicity in mouse xenografted with human MCF7 cells assessed as animal death at 3.2 mg/kg, ip administered every 3 days for 3 times and measured after 14 days; format: organism-based; settings: in vivo, 336 h, time 14 day
# [24] = system: MCF7; assay: Antitumor activity against human MCF7 cells xenografted in mouse assessed as appearance of small cavities in tumor cells at 3.2 to 6.4 mg/kg, ip administered every 3 days for 3 times measured after 14 days by H and E staining based assay; format: functional, organism-based; settings: dose 3.2-6.4 mg/kg, time 14.0 day
# [25] = system: BEAS-2B; assay: Cytotoxicity against human BEAS-2B cells incubated for 72 hrs by MTT assay; format: toxicity, cell-based
# [26] = Stability in mouse plasma; format: ADME, cell-free
# [27] = system: MCF7; assay: Antitumor activity against human MCF7 cells xenografted in mouse assessed as reduction in PCNA positive cells at 3.2 to 6.4 mg/kg, ip administered every 3 days for 3 times measured after 14 days by H and E staining based assay; format: functional, organism-based; settings: dose 3.2-6.4 mg/kg, time 14.0 day
# [28] = Toxicity in mouse xenografted with human MCF7 cells at 3 mg/kg, ip administered every 3 days for 3 times and measured after 14 days; format: organism-based; settings: in vivo, 336 h, time 14 day
smiles,measurement,setting,value
C/C(=C\c1csc(C)n1)[C@@H]1C[C@@H]2O[C@]2(C)CCC[C@H](C)[C@H](O)[C@@H](C)C(=O)C(C)(C)[C@@H](O)CC(=O)O1 [PATUPILONE],Activity,[1],Toxic
same,Activity,[2],Active
same,Activity,[3],Active
same,Activity,[4],Toxic
same,Activity,[5],Active
same,Activity,[6],Active
C/C(=C\c1csc(C)n1)[C@@H]1C[C@@H]2O[C@]2(C)CCC[C@H](C)[C@H](OC(=O)Cc2ccccc2SSCCC(=O)NCc2cn(CCOCCOCCOCCO[C@@H]3O[C@@H](C)[C@H](O)[C@@H](O)[C@H]3O)nn2)[C@@H](C)C(=O)C(C)(C)[C@@H](O)CC(=O)O1,Drug metabolism,[7],Not Active
same,Drug metabolism,[8],Active
C/C(=C\c1csc(C)n1)[C@@H]1C[C@@H]2O[C@]2(C)CCC[C@H](C)[C@H](OC(=O)OCCSSCCOCc2cn(CCOCCOCCOCCO[C@@H]3O[C@H](CO)[C@@H](O[C@@H]4O[C@@H](C)[C@H](O)[C@@H](O)[C@H]4O)[C@H](O)[C@H]3O[C@@H]3O[C@@H](C)[C@H](O)[C@@H](O)[C@H]3O)nn2)[C@@H](C)C(=O)C(C)(C)[C@@H](O)CC(=O)O1,Activity,[9],Active
same,Activity,[10],Active
same,Activity,[11],Active
same,Activity,[12],Active
C/C(=C\c1csc(C)n1)[C@@H]1C[C@@H]2O[C@]2(C)CCC[C@H](C)[C@H](OC(=O)OCCSSCCOCc2cn(CCOCCOCCOCCO[C@@H]3O[C@@H](C)[C@H](O)[C@@H](O)[C@H]3O)nn2)[C@@H](C)C(=O)C(C)(C)[C@@H](O)CC(=O)O1,Activity,[13],Active
same,Activity,[14],Non-Toxic
same,Activity,[15],inactive
same,Drug metabolism,[7],Active
same,Activity,[16],Non-Toxic
same,Activity,[17],Active
same,Drug metabolism,[18],Not Active
same,Activity,[9],Active
same,Activity,[10],Active
same,Activity,[19],inactive
same,Activity,[20],Active
same,Activity,[21],Non-Toxic
same,Activity,[11],Active
same,Activity,[1],Non-Toxic
same,Activity,[22],Non-Toxic
same,Activity,[23],Non-Toxic
same,Activity,[12],Active
same,Activity,[24],Active
same,Activity,[25],Non-Toxic
same,Drug metabolism,[8],Active
same,Stability,[26],Stable
same,Activity,[27],Active
same,Activity,[5],inactive
same,Activity,[28],Non-Toxic
